Holding throughout (format): cell-based
For one data set, the system named is iNOS. In words: iNOS mRNA expression (RT-PCR, real-time PCR) in activated primary human astrocytes. As to conditions: oligonucleotide 40 h, then 6 h of stimulation. How it is done: (§1) Total RNA was isolated from human primary astrocytes using RNA-Easy Qiagen kit following manufactures protocol. To remove any contaminating genomic DNA, total RNA was digested with DNase. Semi-quantitative RT-PCR was carried out as described earlier using oligo (dT) 12-18 as primer and MMLV reverse transcriptase (Clontech) in a 20-μl reaction mixture. The resulting cDNA was appropriately diluted, and diluted cDNA was amplified using Titanium Taq polymerase and the following primers for human proinflammatory genes: […]
It was performed using the ABI-Prism7700 sequence detection system (Applied Biosystems, Foster City, Calif.) using TaqMan Universal Master Mix and optimized concentrations of FAM-labeled probe, forward and reverse primers (Applied Biosystems) as described earlier. […] Data were processed by the ABI Sequence Detection System 1.6 software and analyzed by ANOVA.
Cells pretreated with ASO and ScO against N-SMase and A-SMase for 40 h were stimulated with (Aβ+IL-1β) under serum-free condition. After 24 h of stimulation, the concentration of nitrite was measured in supernatants (FIG. 4A) by Griess reagent. […] After 6 h, the expression of iNOS mRNA was analyzed by both semi-quantitative RT-PCR (C) and quantitative real-time PCR (FIG. 4D). The expression of TNF-a, IL-6 and IL-Iβ mRNAs were analyzed by semi-quantitative RT-PCR (FIG. 4E). […]
In general terms: In qPCR the cycle at which signal appears reflects the starting amount.

The subject of data set [1] is primary human neurons. In words: LDH release from neurons in astrocyte-neuron trans-well. Particulars: neurons pretreated with oligonucleotide; 18 h of stimulation. How it is done:
Primary human astrocytes were grown to confluency on inserts. After 24 h of stimulation by the combination of Aβ (1 μM) and IL-Iβ (10 ng/ml), inserts were washed thrice with HBSS and then placed onto the wells containing primary human neurons. Therefore, in this trans-well model, although neurons and astrocytes face each other, they are separable and the effect of soluble factors released from activated astrocytes on neurons can be studied allowing analysis of neuronal and glial populations separately.
The activity of lactate dehydrogenase (LDH) was measured using the direct spectrophotometric assay using an assay kit from Sigma.
Primary human neurons were incubated with antisense (ASO) and scrambled oligonucleotides (ScO) against N-SMase (A) and A-SMase (FIG. 2B). After 48 h, neurons were analyzed for protein expression of N-SMase and A-SMase. In FIG. 2C, primary human astrocytes seeded in inserts were stimulated by the combination of Aβ and IL-1β as described above. […] After 6 h of treatment with activated astrocytes, apoptotic events in neurons were detected by TUNEL. In FIG. 2D, TUNEL-positive cells were counted manually in four different images of each of three coverslips by three individuals blinded to the experiment. In FIG. 2E, after 18 h of stimulation, cell viability was examined by the metabolism of MTT and the release of LDH. […] Values obtained from the control group served as 100%, and data obtained in other groups were calculated as percent of control accordingly. […]
In FIGS. 3A-3E, primary human astrocytes seeded in inserts were stimulated by the combination of Aβ and IL-Iβ as described above. […] In FIG. 3A, after 1 h, activity of N-SMase was measured in total cell extracts of neurons as described above. […] Values obtained from the control group served as 100%, and data obtained in other groups were calculated as percent of control accordingly. […] Primary human neurons were treated with 25 μM DETA-NONOate (a NO donor) and at different time points of treatment, activities of N-SMase (FIG. 3D) and A-SMase (FIG. 3E) were monitored. ^ap<0.001 vs control (0 h).
(LDH in the medium is a marker of cell lysis.)

The test system of data set [2] is TNF-α, IL-1β and IL-6 mRNAs. In words: TNF-α, IL-1β and IL-6 mRNA expression (RT-PCR) in activated primary human astroglia. Particulars: oligonucleotide 40 h, then 6 h of stimulation. How it is done: as §1
Cells pretreated with ASO and ScO against N-SMase and A-SMase for 40 h were stimulated with (Aβ+IL-1β) under serum-free condition. After 24 h of stimulation, the concentration of nitrite was measured in supernatants (FIG. 4A) by Griess reagent. […] Cells were treated with ASO/ScO for 40 h followed by stimulation with the combination of fibrillar Aβ and IL-Iβ as above. After 6 h, the expression of iNOS mRNA was analyzed by both semi-quantitative RT-PCR (C) and quantitative real-time PCR (FIG. 4D). The expression of TNF-a, IL-6 and IL-Iβ mRNAs were analyzed by semi-quantitative RT-PCR (FIG. 4E). Results are mean±SD of three different experiments. ^ap<0.001 vs control; ^bp<0.001 vs (Aβ+IL-Iβ).

Data set [3] has as its system primary human neurons. In words: TUNEL apoptosis of neurons challenged by oligomeric Aβ-activated astrocytes, trans-well. Particulars: neurons pretreated 40 h with 1 μM oligonucleotide; 6 h. How it is done:
Fragmented DNA was detected in situ by the terminal deoxynucleotidyltransferase-mediated binding of 3′-OH ends of DNA fragments generated in response to fibrillar Aβ1-42, using a commercially available kit (TdT FragEL™) from Calbiochem. Briefly, cover slips were treated with 20 μg/ml proteinase K for 15 min at room temperature and washed prior to terminal deoxynucleotidyltransferase staining.
In FIG. 5A, primary astrocytes were stimulated with fibrillar Aβ1-42, oligomeric Aβ1-42 and reverse peptide Aβ42-1 for 24 h followed by double-labeling of GFAP and iNOS. In FIG. 5B, primary human astrocytes seeded in inserts were stimulated with a combination of I μM of oligomeric Aβ1-42 and 10 ng/ml of IL-Iβ in serum free media. […] After 6 h, neuronal apoptosis was monitored by TUNEL. In FIG. 5C, TUNEL-positive cells were counted manually in four different images of each of three coverslips by three individuals blinded to the experiment. Values obtained from the control group (1) served as 100%, and data obtained from other three groups i.e. the oligomeric Aβ-activated astrocytes (OAA) group (2), the ASO-OAA group (3), and the ScO-OAA group (4) was calculated as percent of control accordingly. Results are mean+S.D. of three different experiments. ^ap<0.001 vs control; ^bp<0.001 vs OAA.

Turning to “5′- CAGCGAGCCCGTCCACCAGCC -3′ (DNA, all phosphorothioate, methylation of C not given here) [ASO against N-SMase, ID; NO.: 12]”, the “(Aβ+IL-1β)-induced expression of iNOS mRNA” value in the data set on iNOS is reported as “strongly inhibited”. For the same substance, the “LDH release from neurons” value in the data set on primary human neurons [1] is “significant reduction”. Also, the “(Aβ+IL-1β)-induced expression of TNF-α, IL-1β and IL-6 mRNAs” value in data set [2] is recorded as “abrogated”. Besides, in the data set with primary human neurons [3], the “oligomeric Aβ-activated astrocyte-induced apoptosis of human neurons (TUNEL)” value is “blocked”.
